In patent US20240360076A1, “NONIONIC SURFACTANTS” (priority 2023, published 2024):

Key:
[1] = system: FluB target RNA sequence; assay: FluB LAMP assay, time to positive; format: biochemical; conditions: for compatibility with FluB assay: presence of nasal matrix
Description: As the surfactant concentration approaches its critical micelle concentration (CMC), detrimental impact is observed on LAMP performance.
It was determined that DS2 is compatible with FluB assay in the presence of nasal matrix at 0.015%.

[2] = system: SARS-COV-2 target template; assay: SARS-COV-2 LAMP assay; format: biochemical; conditions: 0.0075% in LAMP MasterMix
[3] = format: physicochemical; conditions: buffer, 1 month, 0.1 %, pH 8.8
Description: Solutions of isothermal amplification buffers at pH 8.8 containing 0.1% of DS2, DS13, or DS17 were kept at 25° C. and analyzed over time using HPLC. It was observed that 95%-100% of the surfactant remained after one month (FIG. 5A) and therefore DSs are stable in pH 8.8 amplification buffer when stored in ambient conditions.

[4] = CMC determination by dynamic light scattering; format: physicochemical
Description: Average micelle radius data was collected on a DynaPro NanoStar Dynamic Light Scattering Detector. To each disposable cuvette was added 5 μL of the specified solution of DS1, DS2, or DS13 in water (T=25° C., n=10).

[5] = system: Ex2B target template; assay: Ex2B LAMP assay; conditions: 0.0075% in LAMP MasterMix
Description: DS2 was added at 0%, 0.015%, 0.0575%, and 0.1% to the LAMP MasterMix, or LAMP buffer, containing target-specific primers, dNTPs, DNA polymerase, reverse transcriptase, intercalating fluorescent dye, and the target RNA sequence. This reaction mixture was incubated at 62° C. for 50 minutes and the increase in fluorescence was assessed to determine the time to positivity.
DS2, DS13, and DS17 were added at 0.0075% to the LAMP MasterMix using the above procedure with Ex2B target template (FIG. 4B).

[6] = system: MS2 template; assay: Lyophilized MS2 LAMP chemistry, time to positive; format: biochemical; conditions: 0%, 0.03% or 0.06%; template 0.12 cp/μL and 0.06 cp/μL
[7] = 2 months

Row | Structure (SMILES) | compatibility with FluB assay ([1]; 0.0075% in LAMP MasterMix) | compatibility with FluB assay ([1]; 0.015% in LAMP buffer) | impact on LAMP performance at the CMC ([1]; 0.1% DS2, FluB LAMP, nasal matrix, 62° C. for 50 minutes) | impact on assay specificity below the CMC ([1]; concentrations below the CMC) | compatibility with SARS-COV-2 assay [2] | surfactant remaining [3] | critical micelle concentration (CMC) [4] | compatibility with Ex2B assay [5] | impact on time to positive (Tp, min) [6] | remaining [7]
1 | CCCCCCCCCCC(=O)N(CCOCCOCCOC)CCOCCOCCOC [DS2] | compatible | compatible | delay in the contrived positive amplification | no detrimental impact | compatible | 95%-100 | 0.1% | compatible |  | 
2 | CCCCCCCCCCC(=O)N(CCOCCOCCOCCOC)CCOCCOCCOCCOC [DS13] | compatible |  |  |  | compatible | 95%-100 |  | compatible | no detrimental impact | 97.1±1.5%
3 | CCCCCCCCCCC(=O)NCCOCCOCCOCCOCCOCCOC [DS17] | compatible |  |  |  | compatible | 95%-100 |  | compatible |  | 
